Measurements taken from ChEMBL document CHEMBL1126330, “Synthesis of RP-67,580, a new potent nonpeptide substance P antagonist” (Bioorg Med Chem Lett, 1992).

Tests used:
[1] = biological target: Substance-P receptor (Rattus norvegicus, UniProt P14600); experiment: Tested for binding affinity towards Tachykinin receptor 1 by using [3H]SP binding assay in rat brain membranes; type: cell membranes
[2] = biological target: Substance-P receptor (Cavia porcellus, UniProt P30547); experiment: Tested for inhibition of contractile effects of Tachykinin receptor 1 in guinea pig ileum preparation.; type: functional, tissue-based; settings: read-out: pA2 (converted)
Chain of Substance-P receptor (Cavia porcellus, UniProt P30547) (P30547 whole entry): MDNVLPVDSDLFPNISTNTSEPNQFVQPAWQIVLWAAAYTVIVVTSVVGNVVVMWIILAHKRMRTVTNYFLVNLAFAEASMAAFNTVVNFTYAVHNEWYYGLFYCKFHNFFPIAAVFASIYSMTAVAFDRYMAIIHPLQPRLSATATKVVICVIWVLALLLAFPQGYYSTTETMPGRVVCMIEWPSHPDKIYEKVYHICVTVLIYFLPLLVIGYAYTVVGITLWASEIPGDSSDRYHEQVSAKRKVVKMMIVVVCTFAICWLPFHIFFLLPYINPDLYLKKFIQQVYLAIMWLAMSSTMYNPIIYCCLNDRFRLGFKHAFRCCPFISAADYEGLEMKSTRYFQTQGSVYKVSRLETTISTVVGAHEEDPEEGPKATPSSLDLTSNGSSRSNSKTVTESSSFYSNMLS

Chain of Substance-P receptor (Rattus norvegicus, UniProt P14600) (P14600 whole entry): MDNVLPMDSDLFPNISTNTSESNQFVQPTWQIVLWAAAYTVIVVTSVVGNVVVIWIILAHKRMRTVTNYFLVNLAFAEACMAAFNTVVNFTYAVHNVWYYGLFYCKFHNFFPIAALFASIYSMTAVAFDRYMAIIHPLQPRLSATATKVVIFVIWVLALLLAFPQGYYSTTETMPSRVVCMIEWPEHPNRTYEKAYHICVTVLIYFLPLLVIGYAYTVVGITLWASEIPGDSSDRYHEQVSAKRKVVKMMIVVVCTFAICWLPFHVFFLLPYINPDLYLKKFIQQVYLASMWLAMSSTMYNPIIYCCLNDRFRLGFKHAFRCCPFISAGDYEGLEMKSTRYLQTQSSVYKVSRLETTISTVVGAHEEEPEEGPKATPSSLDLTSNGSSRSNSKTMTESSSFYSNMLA

COc1ccccc1CC(=N)N1C[C@@H]2C(=O)CCC(c3ccccc3)(c3ccccc3)[C@@H]2C1
Ki [1]: 4.16 nM
Kb [2]: 63.1 nM
